The values below come from US9273038B2, “Solid forms of an ion channel modulator” (Gilead Sciences, Inc., priority 2014, dated 2016).

Data set [1] is described as follows: Hydrate screen in ethanol/water and isopropanol/water: solubility and relative form stability. The settings on record: for Form III Solubility mg/g (1 day): from 50:50 w/w mixture of Form I & III. The format is physicochemical. As to the method:
A hydrate screen starting from Form I was also conducted to evaluate whether hydrates of Compound I exist. The hydrate screen was conducted in ethanol/water (Table 6) and isopropanol/water (Table 7) mixtures, and in both cases, a new polymorph of Compound I was discovered (denoted as Form III).
From the initial hydrate screens presented in Table 6 and Table 7 no apparent trends were observed. In this case, all slurries of Form I in EtOH/water or IPA/water mixtures remained unchanged after 2 weeks (Table 8 and Table 9). Since Form III has been observed previously under the same conditions, it was suspected that the lack of form conversion is mainly due to slow kinetics. […] Attempts to determine the relative stability between Forms I and III at lower water activities were unsuccessful since Form I either was too soluble or oiled out at water activities of 0.8 or below.

The nature of data set [2]: Dynamic vapor sorption (DVS) analysis. Type of data set: physicochemical. As for the experimental part: The solids with unique XRPD patterns were characterized by DSC, TGA, ^1H NMR, KF and DVS. All XRPD patterns were obtained in the experimental setting as follows: 45 kV, 40 mA, Kα1=1.5406 Å, scan range 2 to 40°, step size 0.0167°, counting time: 15.24 s. DSC and TGA analyses were performed using 10° C./min heating rate over the 20 to 350° C. temperature range.

Where two headings read alike, the source gives them in different places.

Regarding `O=C1c2cc(-c3ccc(OC(F)(F)F)cc3)ccc2OCCN1Cc1ncccn1` [Compound I Form III, 4-(pyrimidin-2-ylmethyl)-7-(4-(trifluoromethoxy)phenyl)-3,4-dihydrobenzo[f][1,4]oxazepin-5(2H)-one], the “Form III Solubility mg/g (1 day)” value in data set [1] (10% EtOH/water, water activity >0.9) was 0.06 mg/g; in data set [1] (10% IPA/water, water activity >0.9), 0.06 mg/g; in data set [1] (20% EtOH/water, water activity 0.8-0.9), 0.10 mg/g; in data set [1] (20% IPA/water, water activity >0.9), 0.19 mg/g; in data set [1] (25% IPA/water, water activity >0.9) it was 0.78 mg/g; in data set [1] (30% EtOH/water, water activity 0.8-0.9) it was 0.49 mg/g. In addition, the “Form III Solubility mg/g (1 day)” value worked out at 3.2 mg/g in data set [1] (30% IPA/water, water activity >0.9) and 1.8 mg/g in data set [1] (35% EtOH/water, water activity 0.8-0.9). For the same compound, in data set [1] (water activities above 0.8, EtOH/water or IPA/water), the “Relative polymorph stability (competition slurry Form I/Form III)” value was “the most stable polymorph of Compound I”.

Consider `CCS(=O)(=O)O.O=C1c2cc(-c3ccc(OC(F)(F)F)cc3)ccc2OCCN1Cc1ncccn1` [Compound I Form XVI, 4-(pyrimidin-2-ylmethyl)-7-(4-(trifluoromethoxy)phenyl)-3,4-dihydrobenzo[f][1,4]oxazepin-5(2H)-one esylate], for which the “Relative humidity of deliquescence (DVS)” value in data set [2] was “around 90 % RH”.

Regarding `O=C(O)C(=O)O.O=C1c2cc(-c3ccc(OC(F)(F)F)cc3)ccc2OCCN1Cc1ncccn1` [Compound I Form XVIII, 4-(pyrimidin-2-ylmethyl)-7-(4-(trifluoromethoxy)phenyl)-3,4-dihydrobenzo[f][1,4]oxazepin-5(2H)-one oxalate], in data set [2], the “Hygroscopicity by DVS (in words)” value is “non-hygroscopic” and the “Moisture uptake at 90% RH (DVS)” value is “about 0.075%”.

Take “4-(pyrimidin-2-ylmethyl)-7-(4-(trifluoromethoxy)phenyl)-3,4-dihydrobenzo[f][1,4]oxazepin-5(2H)-one edisylate [Compound I Form XVII]”: in data set [2], the “Hygroscopicity by DVS (in words)” value is on record as “slightly hygroscopic” and the “Moisture uptake at 90% RH (DVS)” value is given as “about 1%”.

`O=C1c2cc(-c3ccc(OC(F)(F)F)cc3)ccc2OCCN1Cc1ncccn1.O=S(=O)(O)c1ccccc1` [Compound I Form VI, 4-(pyrimidin-2-ylmethyl)-7-(4-(trifluoromethoxy)phenyl)-3,4-dihydrobenzo[f][1,4]oxazepin-5(2H)-one benzene sulfonic acid]: in data set [2], the “Hygroscopicity by DVS (in words)” value is reported as “non-hygroscopic” and the “Moisture uptake at 90% RH (DVS)” value is “about 0.1%”. Further, in data set [2] (listed as Form VI), the “Moisture uptake at 90% RH (DVS)” value was determined as 0.11 wt % at and the “Hygroscopicity by DVS (in words)” value is “Non-”.
